pKi: −log10 of the molar value.
How the values were obtained:
ENT2 [1] = molecular target: T1, ENT2 (Homo sapiens, UniProt Q14542); assay: Wash-out reversibility of [3H]uridine uptake inhibition in PK15NTD/ENT2 cells; assay type: cell-based; details: 50 µM, incubation 1–60 min, washed five times
T1 construct: expressed in transfected cells
T1 sequence (Q14542 1-456): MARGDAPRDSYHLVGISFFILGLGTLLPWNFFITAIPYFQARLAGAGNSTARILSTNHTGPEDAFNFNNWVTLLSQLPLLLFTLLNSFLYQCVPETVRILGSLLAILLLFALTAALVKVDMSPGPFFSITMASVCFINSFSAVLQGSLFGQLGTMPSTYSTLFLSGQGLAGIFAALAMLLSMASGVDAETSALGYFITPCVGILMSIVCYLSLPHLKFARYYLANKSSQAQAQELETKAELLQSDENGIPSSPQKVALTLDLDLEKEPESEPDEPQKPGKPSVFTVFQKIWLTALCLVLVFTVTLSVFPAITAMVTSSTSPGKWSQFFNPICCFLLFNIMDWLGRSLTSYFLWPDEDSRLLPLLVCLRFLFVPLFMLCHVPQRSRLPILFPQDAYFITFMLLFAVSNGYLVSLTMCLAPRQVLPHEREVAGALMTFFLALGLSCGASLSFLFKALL
Method: To determine whether the inhibitory effects of compound 3c were reversible or irreversible, PK15NTD/ENT1 and PK15NTD/ENT2 cells were incubated with 50 µM of compound 3c for different time periods (1–60 min). The cells were then washed five times with buffer. After wash-out for every single time [^3H]uridine uptake was measured. […] The longer the incubation time with compound 3c, the more difficult it was to wash-out the inhibitory effects of compound 3c.
FIGURE 6 Reversibility of the inhibitory effects of compound 3c on ENT1 and ENT2 (A) PK15NTD/ENT1 and (B) PK15NTD/ENT2 cells were incubated with 50 μM of compound 3c or a vehicle (0.5% DMSO, as a control) for different time (0–60 min) The cells were then washed five times. After wash-out for every single time [^3H]uridine uptake (1 μM, 2 μCi/ml) was measured. Data are presented as mean ± SE of three experiments. ^* p < 0.05 compared with the fifth wash.

ENT2 [2] = molecular target: T1, ENT2; assay: Kinetic study of [3H]uridine uptake in PK15NTD/ENT2 cells; assay type: cell-based
Method: Nucleoside transporter-deficient porcine kidney fibroblast cells (PK15NTD) stably transfected with cloned human ENT1 or ENT2 ([Ward et al., 2000]) were used as the in vitro models. The cells were cultured in Dulbecco’s Modified Eagle’s Medium (DMEM) supplemented with 10% (v/v) foetal bovine serum, 0.5 mg/ml geneticin, 100 units/ml penicillin, 100 μg/ml streptomycin and 0.25 μg/ml of amphotericin B at 37°C in 5% CO2/95% air.
Confluent monolayers of PK15NTD/ENT1 and PK15NTD/ENT2 cells in 24-well plates were washed thrice with HEPES-buffered Ringer’s solution containing (mM): 135 NaCl, 10 glucose, 5 KCl, 5 HEPES, 3.33 NaH2PO4, 1.0 CaCl2, 1.0 MgCl2, 0.83 Na2HPO4; pH 7.4. The cells were incubated with different concentrations of FPMINT analogues (from 10 nM to 100 μM) containing [^3H]uridine (2 μCi/ml, 1 μM) for 1 min. Passive uridine uptake was determined by incubating the cells in HEPES-buffered Ringer’s solution containing [^3H]uridine in the presence of 0.5 mM NBMPR. The cells were rapidly washed five times with ice-cold phosphate-buffered saline (PBS). After air-drying, the cells were solubilised by overnight incubation in 500 μl of 5% Triton-X100. Next, 300 μl of the cell lysates were mixed with 2 ml of scintillation liquid. The radioactivity of each sample was quantified by a scintillation counter. The protein content in each well was determined spectrophotometrically using a commercial bicinchoninic acid assay (Pierce Biochemicals, Rockford, IL). Uptake values were expressed as picomoles of [^3H]uridine per milligram of cellular protein per minute.
All data were analysed by GraphPad Prism software (San Diego, CA, United States). Data are expressed as mean ± standard error (SE) of three experiments performed in triplicate. The IC50 values were determined from the dose-response curves fitted with a logistic function. For the kinetic study of [^3H]uridine uptake, apparent K m and V max values were determined from the Michaelis-Menten equation, and K i was determined from the X-intercept of linear regression. Analysis of variance and Student’s t-test were performed for multiple and paired variables, respectively. p values of <0.05 were considered to be statistically significant.
Compound 3c was selected for further investigation. The kinetic study of [^3H]uridine transport was performed by measuring the concentration-dependent uptake of [^3H]uridine. This study could provide clue about the mode of action of compound 3c. The uptake of [^3H]uridine by ENT1 and ENT2 was saturable and conformed to Michaelis-Menten kinetics. Compound 3c decreased the V max of ENT1 but had no effect on K m . […] The slopes of the linear 1/V versus 1/[S] plots increased with the concentration of compound 3c (Figure 4B).
FIGURE 4 Competitive inhibition of ENT1 and ENT2 by compound 3c. Kinetic study of [^3H]uridine uptake (0.1 μM–1 mM) was measured in (A) PK15NTD/ENT1 and (D) PK15NTD/ENT2 cells in the presence of various concentrations of compound 3c (0, 0.01, 0.1, 1 and 10 µM) (B,E) 1/V versus 1/[S] plots of each curve in (A) and (D), respectively (C,F) The plot of slopes of each line in (B) and (E), respectively, versus the concentration of compound 3c. Data are presented as mean ± SE of three experiments.

## Cc1cccc(Nc2nc(N)nc(CN3CCN(c4ccc(F)cc4)CC3)n2)c1 [Compound 3c]
ENT2 [1]
  reversibility of inhibitory effect on ENT2 by washing: only partially reversed by washing
ENT2 [2]; 0.01 µM compound 3c
  apparent Vmax of ENT2: 1775 ± 76.83 pmol/mg protein/min
ENT2 [2]; 0.1 µM compound 3c
  apparent Vmax of ENT2: 1295 ± 78.09 pmol/mg protein/min
ENT2 [2]; 1 µM compound 3c
  apparent Vmax of ENT2: 918.6 ± 47.48 pmol/mg protein/min
ENT2 [2]; 10 µM compound 3c
  apparent Vmax of ENT2: 534.6 ± 28.21 pmol/mg protein/min
ENT2 [2]; decreased Vmax, apparent Km unchanged
  mode of inhibition of ENT2-mediated uridine transport: non-competitive inhibitor
ENT2 [2]; x-intercept of slopes versus concentration plot
  pKi: 6.27
